In patent US9765018B2, “IDO inhibitors” (BRISTOL-MYERS SQUIBB COMPANY, priority 2013, dated 2017):

How the values were obtained:
[1] = molecular target: T1, IDO (Homo sapiens (Human), UniProt P14902); assay: Kynurenine assay in IFN-γ-stimulated Hela cells; format: cell-based; conditions: 20 h, read-out: Hela Kyurenine (IC50)
Procedure, shortened: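 Hela cells adhered 5-6 h, then received inhibitor (top dose 30 μM, 3-fold dilutions to 1.5 nM) plus 100 ng/mL human IFN-γ to induce IDO, 20 h at 37° C. TCA added, 30 min at 50° C hydrolyses N-formylkynurenine to kynurenine. Supernatant mixed with Ehrlich reagent, 10 min RT, absorbance 490 nm.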

[2] = molecular target: Human IDO1 (Homo sapiens (Human), UniProt P14902); assay: IDO Kynurenine Assay with Human IDO1/HEK293 Cells; format: cell-based; conditions: HEK293 cells with human IDO1; read-out: HEK human IDO-1 (IC50)
Chain of Human IDO1 (P14902 whole entry): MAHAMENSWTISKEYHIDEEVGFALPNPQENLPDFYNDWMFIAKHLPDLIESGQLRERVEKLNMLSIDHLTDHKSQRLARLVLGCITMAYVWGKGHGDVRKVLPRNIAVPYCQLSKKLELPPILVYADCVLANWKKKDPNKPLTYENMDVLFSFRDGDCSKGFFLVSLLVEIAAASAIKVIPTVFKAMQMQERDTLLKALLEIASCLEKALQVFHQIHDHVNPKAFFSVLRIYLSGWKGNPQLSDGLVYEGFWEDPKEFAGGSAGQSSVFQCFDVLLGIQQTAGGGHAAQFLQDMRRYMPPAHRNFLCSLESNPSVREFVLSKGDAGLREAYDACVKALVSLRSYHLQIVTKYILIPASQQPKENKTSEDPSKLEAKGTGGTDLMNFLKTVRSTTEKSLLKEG
Description: IDO Kynurenine Assay with Human IDO1/HEK293 Cells
Human IDO1/HEK293 cells were seeded at 10,000 cells per 50 uL per well with RPMI/phenol red free media contains 10% FBS in a 384-well black wall clear bottom tissue culture plate (Matrix Technologies LLC) 125 nL of certain concentration of compound was then added to each well using ECHO liquid handling systems. The cells were incubated for 20 hours in 37° C. incubator with 5% CO2.
The compound treatments were stopped by adding Trichloroacetic Acid (Sigma-Aldrich) to a final concentration at 0.2%. The cell plate was further incubated at 50° C. for 30 minute. The equal volume supernatant (20 uL) and 0.2% (w/v) Ehrlich reagent (4-dimethylaminobenzaldehyde, Sigma-Aldrich) in glacial acetic acid were mixed in a new clear bottom 384-well plate. This plate was then incubated at room temperature for 30 minute. The absorbance at 490 nm was measured on Envision plate reader.

[3] = molecular target: T1, IDO; assay: LLE_IDO_ABS_DR (IDO assay, method not described)

T1 sequence (P14902 whole entry): as above

Compound | IC50 [1] | IC50 [2] | IC50 [3]
CCOc1ccc(-c2ccc(Oc3ccccc3C(C)(C)C)c(NC(=O)Nc3ccc(C)cc3)c2)cc1C(=O)O [Example 5, 4′-(2-tert-Butylphenoxy)-4-ethoxy-3′-(3-p-tolylureido)biphenyl-3-carboxylic acid] | 120 nM | 1830 nM | 1010 nM
COc1ccc(-c2ccc(Oc3ccccc3C3CC3)c(NC(=O)Nc3ccc(C)cc3)c2)cc1C(=O)O [Example 127, 4′-(2-cyclopropylphenoxy)-4-methoxy-3′-(3-p-tolylureido)biphenyl-3-carboxylic acid] | 490 nM | 3290 nM | 2430 nM
Cc1ccccc1NC(=O)Nc1cc(-c2cc(F)cc(C(=O)O)c2)ccc1Oc1ccccc1C(C)(C)C [Example 254, 4′-(2-tert-butylphenoxy)-5-fluoro-3′-(3-o-tolylureido) biphenyl-3-carboxylic acid] | 350 nM | 1620 nM | 1160 nM
COc1ccc(-c2ccc(Oc3ccccc3C(C)(C)C)c(NC(=O)Nc3ccccc3C(F)(F)F)c2)cc1C(=O)O [Example 46, 4′-(2-tert-butylphenoxy)-4-methoxy-3′-(3-(2-(trifluoromethyl)phenyl)ureido)biphenyl-3-carboxylic acid] | 50 nM | 540 nM | 320 nM
COc1ccc(-c2ccc(Oc3ccccc3C(C)(C)C)c(NC(=O)Nc3ccc(C)cc3)c2)cc1NS(=O)(=O)C(F)(F)F [Example 7, N-(4′-(2-tert-Butylphenoxy)-4-methoxy-3′-(3-p-tolylureido)biphenyl-3-yl)-1,1,1-trifluoromethanesulfonamide] | 110 nM | 750 nM | 320 nM
CCCc1ccccc1Oc1ccc(-c2ccc(OC)c(C(=O)O)c2)cc1NC(=O)Nc1ccc(C)cc1 [Example 77, 4-methoxy-4′-(2-propylphenoxy)-3′-(3-p-tolylureido)biphenyl-3-carboxylic acid] | 330 nM | 2330 nM | 780 nM
COc1ccc(-c2ccc(Oc3cccc4ccccc34)c(NC(=O)Nc3ccc(C)cc3)c2)cc1C(=O)O [Example 131, 4-methoxy-4′-(naphthalen-1-yloxy)-3′-(3-p-tolylureido)biphenyl-3-carboxylic acid] | 160 nM | 770 nM | 770 nM
Cc1ccc(NC(=O)Nc2cc(-c3cccc(C(=O)O)c3)ccc2Oc2cccc(Cl)c2)cc1 [Example 245, 4′-(3-chlorophenoxy)-3′-(3-p-tolylureido) biphenyl-3-carboxylic acid] | 250 nM | 6580 nM | 2250 nM
COc1ccc(-c2ccc(Oc3cccc4c3CCC4)c(NC(=O)Nc3ccc(C)cc3)c2)cc1C(=O)O [Example 145, 4′-(2,3-dihydro-1H-inden-4-yloxy)-4-methoxy-3′-(3-p-tolylureido)biphenyl-3-carboxylic acid] | 280 nM | 1590 nM | 790 nM
COc1ccc(-c2ccc(Oc3ccccc3C)c(NC(=O)Nc3ccc(C)cc3)c2)cc1C(=O)O [Example 73, 4-methoxy-4′-(o-tolyloxy)-3′-(3-p-tolylureido)biphenyl-3-carboxylic acid] | 840 nM | 2970 nM | 1570 nM
COc1ccc(-c2ccc(Oc3ccc4c(c3)CCCC4)c(NC(=O)Nc3ccc(C)cc3)c2)cc1C(=O)O [Example 148, 4-methoxy-4′-(5,6,7,8-tetrahydronaphthalen-2-yloxy)-3′-(3-p-tolylureido)biphenyl-3-carboxylic acid] | 260 nM | 2420 nM | 490 nM
COc1ccc(-c2ccc(Oc3cccc4c3CCCC4)c(NC(=O)Nc3cccc(C)c3)c2)cc1C(=O)O [Example 116, 4-methoxy-4′-(5,6,7,8-tetrahydronaphthalen-1-yloxy)-3′-(3-m-tolylureido)biphenyl-3-carboxylic acid] | 100 nM | 790 nM | 780 nM
COc1ccc(-c2ccc(Oc3cccc(C)c3C)c(NC(=O)Nc3cccc(C)c3)c2)cc1C(=O)O [Example 122, 4′-(2,3-dimethylphenoxy)-4-methoxy-3′-(3-m-tolylureido)biphenyl-3-carboxylic acid] | 80 nM | 660 nM | 250 nM
COc1ccc(-c2ccc(Oc3ccccc3C(C)(C)C)c(NC(=O)Nc3ccc(Cl)cc3Cl)c2)cc1C(=O)O [Example 103, 4′-(2-(tert-butyl)phenoxy)-3′-(3-(2,4-dichlorophenyl)ureido)-4-methoxy-[1,1′-biphenyl]-3-carboxylic acid] | 90 nM | 1310 nM | 470 nM
Cc1cccc(NC(=O)Nc2cc(-c3cccc(C(=O)O)c3)ccc2Oc2ccccc2C(C)(C)C)c1 [Example 225, 4′-(2-tert-butylphenoxy)-3′-(3-m-tolylureido) biphenyl-3-carboxylic acid] | 570 nM | 7650 nM | 2900 nM
COc1ccc(-c2ccc(Oc3cccc(C(C)(C)C)c3)c(NC(=O)Nc3ccc(C)cc3)c2)cc1C(=O)O [Example 113, 4′-(3-tert-butylphenoxy)-4-methoxy-3′-(3-p-tolylureido)biphenyl-3-carboxylic acid] | 690 nM | 1660 nM | 880 nM
COc1ccc(-c2ccc(Oc3ccccc3C(C)(C)C)c(NC(=O)Nc3ccccc3Cl)c2)cc1C(=O)O [Example 42, 4′-(2-tert-butylphenoxy)-3′-(3-(2-chlorophenyl)ureido)-4-methoxybiphenyl-3-carboxylic acid] | 90 nM | 620 nM | 340 nM
COc1ccc(-c2ccc(Oc3cccc4c3CCCC4)c(NC(=O)Nc3ccccc3)c2)cc1C(=O)O [Example 151, 4-methoxy-3′-(3-phenylureido)-4′-(5,6,7,8-tetrahydronaphthalen-1-yloxy)biphenyl-3-carboxylic acid] | 60 nM | 1120 nM | 300 nM

Continued by falling IC50 [2], values first:

IC50 [1] | IC50 [2] | IC50 [3] | Compound
50 nM | 530 nM | 200 nM | COc1ccc(-c2ccc(Oc3cccc4c3CCC4)c(NC(=O)Nc3ccccc3C)c2)cc1C(=O)O [Example 143, 4′-(2,3-dihydro-1H-inden-4-yloxy)-4-methoxy-3′-(3-o-tolylureido)biphenyl-3-carboxylic acid]
60 nM | 420 nM | 130 nM | COc1ccc(-c2ccc(Oc3ccccc3C(C)(C)C)c(NC(=O)Nc3ccccc3F)c2)cc1C(=O)O [Example 79, 4′-(2-(tert-butyl)phenoxy)-3′-(3-(2-fluorophenyl)ureido)-4-methoxy-[1,1′-biphenyl]-3-carboxylic acid]
50 nM | 420 nM | 330 nM | C#CCOc1cccc(Oc2ccc(-c3ccc(OC)c(C(=O)O)c3)cc2NC(=O)Nc2ccc(C)cc2)c1C [Example 141, 4-methoxy-4′-(2-methyl-3-(prop-2-ynyloxy)phenoxy)-3′-(3-p-tolylureido)biphenyl-3-carboxylic acid]
40 nM | 380 nM | 160 nM | COc1ccc(-c2ccc(Oc3cccc4c3CCC4)c(NC(=O)Nc3ccccc3Cl)c2)cc1C(=O)O [Example 142, 3′-(3-(2-chlorophenyl)ureido)-4′-(2,3-dihydro-1H-inden-4-yloxy)-4-methoxybiphenyl-3-carboxylic acid]
70 nM | 290 nM | 300 nM | COc1ccc(-c2ccc(Oc3cccc4ccccc34)c(NC(=O)Nc3ccccc3C)c2)cc1C(=O)O [Example 129, 4-methoxy-4′-(naphthalen-1-yloxy)-3′-(3-o-tolylureido)biphenyl-3-carboxylic acid]
80 nM | 260 nM | 430 nM | COc1ccc(-c2ccc(Oc3cccc(C)c3C)c(NC(=O)Nc3ccccc3Cl)c2)cc1C(=O)O [Example 120, 3′-(3-(2-chlorophenyl)ureido)-4′-(2,3-dimethylphenoxy)-4-methoxybiphenyl-3-carboxylic acid]
50 nM | 240 nM | 200 nM | COc1ccc(-c2ccc(Oc3cccc4c3CCCC4)c(NC(=O)Nc3ccccc3C)c2)cc1C(=O)O [Example 115, 4-methoxy-4′-(5,6,7,8-tetrahydronaphthalen-1-yloxy)-3′-(3-o-tolylureido)biphenyl-3-carboxylic acid]
20 nM | 120 nM | 100 nM | COc1ccc(-c2ccc(Oc3cccc4c3CCCC4)c(NC(=O)Nc3ccccc3Cl)c2)cc1C(=O)O [Example 114, 3′-(3-(2-chlorophenyl)ureido)-4-methoxy-4′-(5,6,7,8-tetrahydronaphthalen-1-yloxy)biphenyl-3-carboxylic acid]
– | 90 nM | 50 nM | O=C(Nc1ccc(OC(F)(F)F)cc1)Nc1cc(-c2ccccc2-c2nnn[nH]2)cc(CC2CC2)c1OCCC(F)(F)F [Example 319]
20 nM | 70 nM | 140 nM | C#CCOc1cccc(Oc2ccc(-c3ccc(OC)c(C(=O)O)c3)cc2NC(=O)Nc2ccccc2Cl)c1C [Example 136, 3′-(3-(2-chlorophenyl)ureido)-4-methoxy-4′-(2-methyl-3-(prop-2-ynyloxy)phenoxy)biphenyl-3-carboxylic acid]
